Here are results for 25 compounds from ChEMBL document CHEMBL1201862, “PubChem BioAssay data set” (2004).

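Results reflect a 48-hour exposure of cells in 96-well plates to compound at five concentrations. Abbreviation: GI50, concentration required for 50% inhibition of growth.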 Activity calls are given as the source filed them. Cut-off read from the data, not from the text of the source: active = GI50 up to about 1.1 µM and inactive = higher. Some results are limits rather than exact numbers.

What all share (assay): inhibition of tumour cell growth, NCI panel, 48 h
The test system of assay [1] is DLD-1.
The subject of assay [2] is HOP-18.
Assay [3] has as its system KM-20L2.
Assay [4] has as its system LXFL 529.
Assay [5] concerns M19-MEL.
For assay [6], the system named is RXF 631.
The test system of assay [7] is XF498.
Assay [8] deals with DMS-114.
Assay [9] has as its system DMS-273.

Turning to `C/C(=N\NS(=O)(=O)c1ccc(C)cc1)C(CN1CCOCC1)C(c1ccccc1)c1c(O)c2ccccc2oc1=O` (configuration not stated), the GI50 in assay [1] is > 100 µM (inactive); in assay [2], > 100 µM (inactive); in assay [3] it was > 100 µM (inactive); in assay [4] it was > 100 µM (inactive); in assay [5], 99.5 µM (inactive); in assay [6] it was > 100 µM (inactive). Also, the GI50 in assay [7] was > 100 µM (inactive).

Turning to `O=c1n(CC2CO2)c(=O)n(CC2CO2)c(=O)n1CC1CO1` (configuration not stated) [TEROXIRONE], the GI50 in [1] is 62.1 µM (inactive); in assay [8], 11.4 µM (inactive); in assay [9] it was 1.16 µM (inactive); in assay [2], 91.8 µM (inactive); in assay [3], 68.5 µM (inactive); in assay [5], 53.7 µM (inactive).

As for `C/C(=N\NC(N)=O)C(CN1CCCCC1)C(c1ccccc1)c1c(O)c2ccccc2oc1=O` (configuration not stated), the GI50 in assay [1], in [8], in assay [9], in assay [2], in assay [3] and in assay [4] was > 100 µM (inactive) in each case. Moreover, the GI50 in assay [5] and in [6] was > 100 µM (inactive) throughout.

`Cn1c(=O)c2[nH]cnc2n(CC(N)=O)c1=O`: the GI50 in [1], in assay [8], in [9], in [4], in [5] and in assay [7] was > 100 µM (inactive) each time.

On to `O=C(CO[N+](=O)[O-])OCC(=O)c1ccccc1`, for which the GI50 in assay [1], in assay [9], in assay [3], in assay [4], in assay [5] and in [6] was > 100 µM (inactive) each time.

For `COc1cccc(-c2cc(C(=O)Nc3ccc(Cl)cc3)nc(N)n2)c1`, the GI50 was 69.5 µM (inactive) in assay [1]; 30.6 µM (inactive) in assay [8]; 85.7 µM (inactive) in [9]; > 100 µM (inactive) in assay [2]; 61.4 µM (inactive) in [3]; 52.7 µM (inactive) in assay [4]. Also, the GI50 in [5] was 45.7 µM (inactive); in assay [7], 93.8 µM (inactive).

Regarding `CC(C)C1CO[C@]2(C)CCC(=O)N12` (some centres not stated), the GI50 in [1], in assay [8], in assay [2], in [3], in [4] and in assay [5] was > 100 µM (inactive) throughout. Also, the GI50 in assay [6] and in [7] was > 100 µM (inactive) in each case.

`CC1NOC(=O)C1/N=N/c1ccc(Cl)cc1Cl` (configuration not stated): the GI50 was 33.9 µM (inactive) in assay [1]; 24.2 µM (inactive) in assay [8]; 20.9 µM (inactive) in [9]; 18.5 µM (inactive) in assay [2]; 30.6 µM (inactive) in assay [3]; 21.9 µM (inactive) in assay [4]. The GI50 in assay [5] was 27.2 µM (inactive); in assay [6] it was 38.2 µM (inactive); in assay [7], 23.1 µM (inactive).

As to `C=Cc1cc(OC)c2c(c1)c(=O)oc1c2cc(OC)c2c(O)ccc(C3OC(C)C(O)C(C)(O)C3O)c21` (configuration not stated), the GI50 was 0.0671 µM (active) in [1]; 0.0225 µM (active) in assay [8]; 0.0545 µM (active) in assay [9]; 0.053 µM (active) in assay [2]; 0.041 µM (active) in assay [3]; 0.0614 µM (active) in assay [5]. Also, the GI50 in [7] was 0.0252 µM (active).

With `Clc1ccc(-n2nnc(C3=NCCCN3)c2-c2ccccc2)cc1`, the GI50 in assay [1], in [8], in assay [9], in assay [2], in [3] and in assay [4] was > 100 µM (inactive) each time. The GI50 in assay [5] and in assay [7] was > 100 µM (inactive) throughout.

With `Cc1cc(=O)oc2cc(OCc3nc4ccccc4c(=O)n3-c3ccccc3)ccc12`, the GI50 in assay [1], in assay [8], in assay [9], in [2], in assay [3] and in assay [4] was > 100 µM (inactive) throughout. In addition, the GI50 in assay [5] and in [6] was > 100 µM (inactive) in each case.

As for `CCN(CC)CC(C(=O)Nc1c(C)cccc1C)/C(C)=N\NC(=O)C[N+](C)(C)C` (configuration not stated), the GI50 in assay [1], in assay [8], in assay [9], in assay [3], in assay [4] and in [5] was > 100 µM (inactive) in each case. Further, the GI50 in assay [7] was > 100 µM (inactive).

For the compound `COC(=O)c1c/c(=N\NC(=O)CC(=O)Nc2ccc(C)cc2)c2ccccc2o1`, the GI50 in assay [1], in [8], in assay [9], in assay [2], in assay [3] and in [4] was > 100 µM (inactive) in each case. In addition, the GI50 in [5] and in [7] was > 100 µM (inactive) each time.

`CCOc1ccc(NC(=O)/C(Cc2nc3ccccc3nc2O)=N\O)cc1`: the GI50 in [1], in assay [8], in assay [9], in assay [3], in assay [4] and in [5] was > 100 µM (inactive) in each case.

For the compound `CCOC(=O)C1S/C(=N\c2ccc(Cl)cc2)N=C1C` (configuration not stated), the GI50 in assay [1] is 14.1 µM (inactive); in assay [8] it was 23.8 µM (inactive); in assay [2] it was 23.3 µM (inactive); in assay [3] it was 19.2 µM (inactive); in assay [4], > 10 µM (inactive); in assay [5], 17.3 µM (inactive). The GI50 in assay [7] was 20 µM (inactive).

`N/N=C(\CC1OC(=O)c2ccccc21)c1ccco1` (configuration not stated): the GI50 in assay [1] is > 100 µM (inactive); in [8], > 100 µM (inactive); in assay [9], > 100 µM (inactive); in assay [2] it was < 0.01 µM (active); in assay [3], > 100 µM (inactive); in assay [4], > 100 µM (inactive). For the same compound, in [5], the GI50 is > 100 µM (inactive).

Turning to `Nn1c(S)nnc1NNC(=O)C(=O)Nc1cc(Cl)c(Cl)cc1Cl`, the GI50 in [1] is > 100 µM (inactive); in assay [8], > 100 µM (inactive); in assay [2], 71.1 µM (inactive); in assay [3], > 100 µM (inactive); in [4], > 100 µM (inactive); in assay [5], > 100 µM (inactive). In addition, the GI50 in assay [7] is 90.4 µM (inactive).

In the case of `COc1ccc2c(CCNS(=O)(=O)c3ccccc3)c(C(C)=O)[nH]c2c1[N+](=O)[O-]`, the GI50 is > 100 µM (inactive) in assay [9], > 100 µM (inactive) in assay [3], > 100 µM (inactive) in [4] and 41.4 µM (inactive) in assay [6].

With `CC(C)C(Nc1c2ccccc2[n+]([O-])c2ccccc12)C(=O)O` (configuration not stated), the GI50 was 37.7 µM (inactive) in assay [1]; 36.2 µM (inactive) in assay [8]; 61.9 µM (inactive) in assay [9]; 19.4 µM (inactive) in assay [2]; > 100 µM (inactive) in assay [3]; 32.4 µM (inactive) in assay [4]. The GI50 in assay [5] is 88.5 µM (inactive); in [6], > 100 µM (inactive).

`COc1ccc(-c2cc(-c3ccccc3)c(C#N)c(=O)[nH]2)cc1`: the GI50 in assay [1], in assay [8], in assay [9], in assay [2], in assay [3] and in assay [4] was > 100 µM (inactive) each time. The GI50 in [5] and in [6] was > 100 µM (inactive) throughout.

With `COc1ccc(-c2cc(Cc3cccs3)c(=O)[nH]n2)cc1`, the GI50 in assay [8] is 74.6 µM (inactive); in assay [9], > 100 µM (inactive); in assay [3], 85.5 µM (inactive); in assay [4], 53.8 µM (inactive); in assay [5], 40.3 µM (inactive).

Regarding `Cc1ccc(C)c(NC(=O)c2cc(-c3ccc([N+](=O)[O-])cc3)nc(N)n2)c1`, the GI50 in assay [1], in assay [8], in [9], in [2], in assay [3] and in assay [4] was > 100 µM (inactive) throughout. The GI50 in assay [5] and in assay [7] was > 100 µM (inactive) each time.

On to `COC(=O)c1ccc(OCc2ccc3oc(=O)c(-c4ccccc4)nc3c2)cc1`, for which the GI50 in assay [1] is 15.2 µM (inactive); in [8], > 100 µM (inactive); in assay [9] it was > 100 µM (inactive); in assay [2] it was > 100 µM (inactive); in assay [5], > 100 µM (inactive); in assay [7], 84.3 µM (inactive).

On to `O=C(Nc1ccc(Cl)c(Cl)c1)C(=O)Nn1c(S)nc2ccccc2c1=O`, for which the GI50 in assay [1], in assay [8], in assay [9], in [2], in assay [3] and in [4] was > 100 µM (inactive) in each case. Further, the GI50 in [5] and in assay [7] was > 100 µM (inactive) each time.

In the case of `[N-]=[N+]=CC(=O)C1(C(=O)C=[N+]=[N-])CC1`, the GI50 in [8], in assay [9], in [2], in [3], in assay [4] and in assay [5] was > 100 µM (inactive) throughout. The GI50 in assay [7] is > 100 µM (inactive).
